{
  "source": "patent US10709682B2",
  "about": "“Treatment of tinnitus through modulation of chloride co-transporter NKCC1 in the auditory system” (OTOLANUM AG, priority 2011, dated 2020)",
  "key": {"[1]": {"test_system": "NKCC1 versus KCC2", "settings": "Blaesse et al., 2009, cited from earlier work"}, "[2]": {"test_system": "tinnitus", "settings": "cited from earlier work"}, "[3]": {"test_system": "behavioural correlate of tinnitus", "settings": "chronic tinnitus induced by noise trauma; vigabatrin treatment; cited from earlier work"}, "[4]": {"test_system": "KCC2 expression in cochlear tissue", "test": "Real-time PCR for KCC2 expression in cochlear tissue after noise or sham exposure and local treatment", "type": "in vivo, rat", "procedure": "20 adult female Wistar rats were anaesthetized as described above for the previous experiments. First, auditory brainstem response (ABR) measurements were performed. As in Experiment 2, they were then exposed in a sound attenuation booth for 1.5 hours to a continuous 10 kHz tone at an intensity of 120 dB SPL (Group A; n×10) or sham exposed in the same setting (Group B; n=10). Animals were treated bilaterally right after noise trauma with either artificial perilymph (AP) or bumetanide (Sigma B3023, Lot 027Ko988). AP was prepared freshly in accordance with Guitton et al., 2003 (140 mM NaCl, 4 mM KCl, 2 mM CaCl2, 2m M MgCl2, 10 mM glucose, 10 mM HePES). Bumetanide (300 μM) was prepared as follows: 50 mg of bumetanide powder was diluted in 6.87 ml AP. This 20 mM stock solution was diluted 1:66 in AP (15.15 μL stock solution and 984.85 μL AP). 5 animals of Group A and 5 animals of Group B received AP (total 10 animals) and 5 animals of Group A and 5 animals of Group B received bumetanide total (10 animals). For the local treatment administration, the fur was removed behind the ears and the bulla exposed in a retro-auricular approach. A small hole was carefully drilled into the bony bulla just above the round window niche (0.6-1 mm in diameter). The mucosa was opened and the region around the round window carefully dried of fluid. Through the hole, a small gel-foam pellet (Gelita Tampon; Braun, Melsungen, Germany) was inserted into the round window niche, 5-8 μl of bumetanide solution or AP were applied on the gel foam by means of a precision pipette with gel loader tips, thus avoiding air bubbles under the gel. […] The hole in the bulla was then covered from the outside with muscular tissue and the wound was sutured with surgical thread (Vicryl, Johnson & Johnson, Norderstedt, Germany). Postoperatively the animals were kept warm with the body temperature being controlled until wake-up. […] For the real-time PCR reaction 12.5 μl of SYBRGreen (QuantiFast Sybr Green, Qiagen), 1 μl Primer Mix, 7.3 μl ddH2O and 4 μl cDNA were used per well. […]"}, "[5]": {"test_system": "inner hair cell ribbon synapses", "test": "Count of inner hair cell ribbon synapses after noise or sham exposure and local treatment", "type": "in vivo, rat", "settings": "bumetanide 300 μM local at round window, 2 weeks following noise", "procedure": "Ribbon synapses of inner hair cells were counted. Sections were viewed using an Olympus AX70 microscope equipped with epifluorescence illumination (100× objective, NA=1.35) and a motorized z-axis. Images were acquired using a CCD camera and the imaging soft-ware Cell^F (OSIS GmbH, Münster, Germany). For Otoferlin and CtBP2/RIBEYE immunopositive spot counting on cryo-sectioned cochleae were performed through imaging over a distance of 8 μm with the complete coverage of the IHC nucleus and beyond in an image-stack along the z-axis (z-stack). Typically z-stacks consisted of 30 layers with a z-increment of 0.276 µm, for each layer one image per fluorochrome was acquired. Z-stacks were 3-dimensionally deconvoluted using Cell^F's RIDE module with the Nearest Neighbour algorithm (OSIS GmbH, Müster, Germany). 20 adult female Wistar rats were anaesthetized as described above for the previous experiments. First, auditory brainstem response (ABR) measurements were performed. As in Experiment 2, they were then exposed in a sound attenuation booth for 1.5 hours to a continuous 10 kHz tone at an intensity of 120 dB SPL (Group A; n×10) or sham exposed in the same setting (Group B; n=10). Animals were treated bilaterally right after noise trauma with either artificial perilymph (AP) or bumetanide (Sigma B3023, Lot 027Ko988). […] Ribbon synapses of inner hair cells were counted as in Experiment 2."}, "[6]": {"test_system": "tinnitus", "settings": "Westerberg et al., 1996 (baclofen); Piccirillo et al., 2007 (gabapentin); cited from earlier work"}},
  "note": "Entries after “also recorded” stand apart in the source; their conditions may differ.",
  "data": [
    {"smiles": "NS(=O)(=O)c1cc(C(=O)O)c(NCc2ccco2)cc1Cl", "note": "[furosemide]", "values": [
      {"measurement": "Potency of blocking NKCC1 versus KCCs", "setting": "[1]", "result": "approximately equal potency"},
      {"measurement": "Induction of tinnitus and hearing loss", "setting": "[2]; administered at high doses", "result": "induce temporary tinnitus and hearing loss"},
      {"measurement": "Suppression of tinnitus", "setting": "[2]; patients, effects only for tinnitus of cochlear rather than central origin", "result": "suppress tinnitus, albeit only in a reversible fashion and not in all patients"}
    ]},
    {"smiles": "C=CC(N)CCC(=O)O", "note": "(stereo not drawn) [vigabatrin]", "values": [
      {"measurement": "Behavioural correlate of tinnitus", "setting": "[3]", "result": "reversibly suppressed"}
    ]},
    {"smiles": "CCCCNc1cc(C(=O)O)cc(S(N)(=O)=O)c1Oc1ccccc1", "note": "[bumetanide]", "values": [
      {"measurement": "Affinity for NKCC1 versus KCC2", "setting": "[1]; Payne et al., 2003", "result": "much higher affinity for NKCC1 than for KCC2"},
      {"measurement": "KCC2 expression (down-regulation) in noise exposed, bumetanide treated ears versus sham exposed ears", "setting": "[4]; noise exposed ears (10 kHz, 120 dB SPL, 1.5 h), bumetanide 300 μM local at round window, 15 days following treatment", "result": "No such down-regulation"},
      {"measurement": "KCC2 expression in noise exposed ears, bumetanide treated versus AP treated", "setting": "[4]; noise exposed ears, bumetanide 300 μM local at round window, 15 days following treatment, p<0.01", "result": "statistically significant difference; also recorded: statistically significantly different"},
      {"measurement": "KCC2 expression, bumetanide versus AP treated, sham exposed ears", "setting": "[4]; sham exposed ears (Group B), bumetanide 300 μM, 5-8 μl on gel foam at round window niche, cochlear tissue 15 days following treatment", "result": "no difference"},
      {"measurement": "Decline of inner hair cell ribbons in noise exposed ears that received bumetanide versus sham exposed", "setting": "[5]; midbasal and basal cochlear turns", "result": "not significant"},
      {"measurement": "Inner hair cell ribbon numbers in noise exposed ears, bumetanide versus AP treated", "setting": "[5]; noise exposed ears, p<0.02", "result": "significant difference; also recorded: reduced loss of inner hair cell ribbons"}
    ]},
    {"smiles": "NCC(CC(=O)O)c1ccc(Cl)cc1", "note": "(stereo not drawn) [baclofen]", "values": [
      {"measurement": "Effect on tinnitus", "setting": "[6]", "result": "no effects at all"}
    ]},
    {"smiles": "NCC1(CC(=O)O)CCCCC1", "note": "[gabapentin]", "values": [
      {"measurement": "Effect on tinnitus", "setting": "[6]", "result": "no effects at all"}
    ]}
  ]
}
